Assay results as given in patent US4199579A, “Carbamates of 2-haloergolines and 2-haloergolenes and process for the preparation thereof” (priority 1975, dated 1980).
≈ marks a conversion by molar mass, not a printed value. Structures can show the parent of a compound that is named as a salt. Where two headings read alike, the source gives them in different places.

Experiments:
anaesthetized cat = test: Arterial pressure in the anaesthetized cat; format: in vivo; settings: Felis catus, iv, e.v., read-out: dosage from which arterial pressure is reduced
Procedure: (§1) In the anaesthetized cat and rat, the compound causes the arterial pressure to be reduced, starting from dosages of 50 and 30 μg/kg e.v. respectively. In the "pithed" rat the compound, when intravenously administered, antagonizes the hypertensive effect of the adrenaline (ED-50 46 mg/kg).

[1] = system: alpha-adrenergic receptors; test: Antiadrenalic (antiadrenergic) activity in vitro (a): antagonism of the spasmogenic effect of adrenaline on the seminal vesicle; format: cell-based, guinea pig
Description: More particularly the novel compounds display a vasodilatory activity on the peripheral circulatory system, an hypotensive activity and a spasmolytic effect on the gastrointestinal smooth muscles or a blocking activity towards the alpha-adrenergic receptors, both in "vitro" and in "vivo".
(a) J. Brugger, Helv. Physiol. Pharmacol. Acta 3, 117 (1945)
The product is antagonizing the spasmogenic effect of the adrenaline on the seminal vesicle of guinea pig at concentrations of between 0.1 and 10 pg/ml, as well as the vaso- constricting effect of the noradrenaline on the isolated and perfused caudal arteria of rat, at dosages of between 1 and 10 μg total. Furthermore it antagonizes the contracturing effect of adrenaline and noradrenaline on the "vas deferens" of guinea pig and rat, at concentrations of 0.1 to 10 ng/ml.

[2] = system: alpha-adrenergic receptors; test: Antiadrenalic activity in vivo (b): protection of rats from the lethal effect of adrenaline; parameters: species or system rat; settings: for Antiadrenalic activity (b) vivo ED50: Table 2; for ED50 protecting rats from the lethal effect of adrenaline / activity higher than that of nicergoline: rat
[3] = system: alpha-adrenergic receptors; test: Protection of mice from the lethal effect of adrenaline; format: in vivo; settings: mouse
[4] = system: central nervous system (CNS); test: CNS behaviour tests (swimming of the rat, reserpine ptosis, tetrabenazine catatonia, motility and exploration, behaviour); format: in vivo, rat; mouse; rabbit; dog
Description: The compound belongs to the class of the ergolene derivatives in which substances are found which cause stimulating effects on the central nervous system (CNS); several behaviour tests have been carried out on animals, in order to assess a possible exciting and hallucinogen action.

"pithed" rat = test: Antagonism of the hypertensive effect of adrenaline in the pithed rat; format: in vivo; settings: iv, intravenously, read-out: ED-50 antagonizing the hypertensive effect of adrenaline
Procedure: as §1

histamine = test: Anti-histaminic activity in vitro; format: cell-based; settings: ratio to alpha-blocking concentration
anaesthetized rat = test: Arterial pressure in the anaesthetized rat; format: in vivo; settings: iv, e.v., read-out: dosage from which arterial pressure is reduced
Procedure: as §1

Beagle dogs = test: 7-month oral administration to Beagle dogs; format: in vivo, dog; settings: 7 months, about 8 mg/kg per oral route
acetylcholine = test: Anti-acetylcholinic activity in vitro; format: cell-based; settings: ratio to alpha-blocking concentration
Acute toxicity in mice = format: in vivo, mouse; settings: mouse, in vivo, mouse
Description: (§2) |Toxicity LD50 mice orally

serotonin = test: Anti-serotoninic activity in vitro; format: cell-based; settings: ratio to alpha-blocking concentration
[5] = system: isolated ileum of guinea pig; test: AntiBaCl2 activity in vitro (c): antagonism of the spasmogenic action of barium chloride on the isolated ileum; format: cell-based; settings: Cavia porcellus, read-out: AntiBaCl2 (c) vitro EC50
Procedure: (c) Magnus, Pflugers Arch.Ges.Physiol. 102, 123 (1904)
The substance antagonizes the spasmogenic action of the barium chloride on the isolated ileum of guinea pig at dosages of between 1 and 5 μg/ml. […] On the isolated caudal arteria of rat, the compound II inhibits the vaso-constricting effect as caused by the perfusion with hyperpotassium Ringer's solution.

Anti-Parkinson activity = test: Anti-Parkinson activity; format: in vivo; settings: po; orally
ptosis from reserpine = test: Antagonism to ptosis from reserpine; format: in vivo; settings: po, read-out: Antagonism to ptosis from reserpine ED100
Anorexia = test: Anorexia; format: in vivo; settings: po; orally
mice = test: Acute toxicity in mice; format: in vivo, mouse; settings: acute toxicity
Description: as §2

Antidepressant activity = test: Antidepressant activity; format: in vivo; settings: route not given
Description: (§3) Coming now to examining the anti-asthmatic pharmaceutical compositions it has been ascertained that the compound described as D-2-bromo-6-methyl-8beta-(morpholinocarbolynoxymethyl)-ergoline, corresponding to the formula (4) is endowed with quite special [drawing 81] which render it particularly recommendable for the therapy of asthma. The compound of the formula (4) has the empirical formula C21 H26 N3 O3 Br and a mol. wt. of 448.38. It gives, with mineral and organic acid of nontoxic and pharmacologically acceptable nature, a number of salt. These are soluble in water as well as in the physiological solutions. Such are for example the maleate C25 H30 N3 O7 Br, m.p. 213° C.-216° C., or the methanesulfonate C22 H30 N3 O6 BrS, m.p. 265° C.-266° C. and can be prepared according to the conventional methods by treating the compound (4) with the equivalent quantities of the acid in an aqueous medium or in appropriate organic solvents and their mixtures such as the alcohols, the ethers, the lower aliphatic ketones and others, taken individually or in appropriate mixtures with each other as will be detailed in the Examples hereinafter. The pharmacological activity of the compound of formula (4) is unfolded in appropriate assays, carried out on the test animals and is especially conspicuous in the following test runs: […]

[6] = system: alpha-adrenergic receptors; settings: e.v.; comparison compound, reference (e); cited from earlier work
[7] = biological target: alpha-adrenergic receptors; settings: in vitro; comparison compound, reference (d) or (e); cited from earlier work
Myorelaxing activity = test: Myorelaxing activity; format: in vivo; settings: route not given
Description: as §3

[8] = iv, e.v., Table 2, read-out: DL50 e.v. in the mouse

CN1C[C@H](COC(=O)N2CCCCCC2)C[C@@H]2c3cccc4[nH]c(Br)c(c34)C[C@H]21 [Example 2, D-2-bromo-6-methyl-8beta-(perhydroazepinylcarbonyloxymethyl)-ergoline]
minimal effective dose (anaesthetized cat): ≥ 0.05 mg/kg
Antiadrenalic activity (a) vitro EC50 [1]: 0.0017 ng/mL
Antiadrenalic activity (b) vivo ED50 ([2]; e.v.): 0.008 mg/kg
ED50 protecting rats from the lethal effect of adrenaline ([2]; e.v.): 0.008 mg/kg
activity higher than that of nicergoline ([2]; intravenously): 2.5 times
activity higher than that of nicergoline ([2]; orally): 24 times
ED50 protecting rats from the lethal effect of adrenaline ([2]; per os): 0.37 mg/kg
ED50 protecting mice from the lethal effect of adrenaline ([3]; e.v.): 0.051 mg/kg
ED50 protecting mice from the lethal effect of adrenaline ([3]; per os): 0.61 mg/kg
ECG modifications ([4]; in vivo): ECG modifications of sedative type were always detected
exciting property in behaviour tests ([4]; rat, mice, rabbit, dog): no evidence were found of any exciting property
ED50 ("pithed" rat): 0.046 mg/kg
anti-histaminic activity: concentration higher than that showing the alpha-blocking effect (histamine): 800 times
minimal effective dose (anaesthetized rat): ≥ 0.03 mg/kg
macroscopic or microscopic alterations of the main organs (Beagle dogs): did not cause macroscopic or microscopic alterations
modifications of the weight, hematological and hematochemical parameters (Beagle dogs): did not cause modifications
anti-acetylcholinic activity: concentration higher than that showing the alpha-blocking effect (acetylcholine): 4500 times
LD50 (Acute toxicity in mice; [8]): 39.4 mg/kg
anti-serotoninic activity: concentration higher than that showing the alpha-blocking effect (serotonin): 200 times
EC50 [5]: 3.1 µg/mL (≈ 6.73 µM)

CN(C)C(=O)OC[C@@H]1C[C@@H]2c3cccc4[nH]c(Br)c(c34)C[C@H]2N(C)C1 [Example 4, D-2-bromo-6-methyl-8beta-(N,N-dimethylcarbamoyloxymethyl)-ergoline]
Antiadrenalic activity (a) vitro EC50 [1]: 10 ng/mL
Antiadrenalic activity (b) vivo ED50 ([2]; e.v.): 0.0112 mg/kg
LD50 (Acute toxicity in mice; [8]): 7.1 mg/kg
EC50 [5]: 10 µg/mL (≈ 24.6 µM)

CCN(CC)C(=O)OC[C@@H]1C[C@@H]2c3cccc4[nH]c(Br)c(c34)C[C@H]2N(C)C1 [Example 6, D-2-bromo-6-methyl-8beta-(N,N-diethylcarbamoyloxymethyl)-ergoline]
Antiadrenalic activity (a) vitro EC50 [1]: 4.7 ng/mL
Antiadrenalic activity (b) vivo ED50 ([2]; e.v.): 0.0803 mg/kg
LD50 (Acute toxicity in mice; [8]): 13.7 mg/kg
EC50 [5]: 3.8 µg/mL (≈ 8.75 µM)

CN1C[C@H](COC(=O)N2CCC2)C[C@@H]2c3cccc4[nH]c(Br)c(c34)C[C@H]21 [Example 7, D-2-bromo-6-methyl-8beta-(azetidinylcarbonyloxymethyl)-ergoline]
Antiadrenalic activity (a) vitro EC50 [1]: 5 ng/mL
Antiadrenalic activity (b) vivo ED50 ([2]; e.v.): 0.05 mg/kg
LD50 (Acute toxicity in mice; [8]): 8.7 mg/kg
EC50 [5]: 1.4 µg/mL (≈ 3.35 µM)

CN1C[C@H](COC(=O)N2CCCC2)C[C@@H]2c3cccc4[nH]c(Br)c(c34)C[C@H]21 [Example 10, D-2-bromo-6-methyl-8beta-(pyrrolydycarbonyloxy-methyl)-ergoline maleate]
Antiadrenalic activity (a) vitro EC50 [1]: 2 ng/mL
Antiadrenalic activity (b) vivo ED50 ([2]; e.v.): 0.0155 mg/kg
LD50 (Acute toxicity in mice; [8]): 15 mg/kg
EC50 [5]: 4 µg/mL

CN1C[C@H](COC(=O)N2CCCCC2)C[C@@H]2c3cccc4[nH]c(Br)c(c34)C[C@H]21 [Example 12, D-2-bromo-6-methyl-8beta-(piperidinocarbonyloxymethyl)-ergoline]
Antiadrenalic activity (a) vitro EC50 [1]: 3.7 ng/mL
Antiadrenalic activity (b) vivo ED50 ([2]; e.v.): 0.0202 mg/kg
LD50 (Acute toxicity in mice; [8]): 50 mg/kg
EC50 [5]: 3.5 µg/mL (≈ 7.84 µM)

CN1C[C@H](COC(=O)N2CCCCCC2)C[C@@H]2c3cccc4c3c(c(Br)n4C)C[C@H]21 [Example 14, D-2-bromo-1,6-dimethyl-8beta-(perhydroazepinylcarbonyloxymethyl) ergoline]
ED100 (Anti-Parkinson activity): 20 mg/kg
ED100 (ptosis from reserpine): 0.01 mg/kg
ED100 (Anorexia): 5 mg/kg
LD50 (Acute toxicity in mice; iv, mice, intravenously, compound (3), read-out: Toxicity LD50 mice, intravenously): 65 to 83 mg/kg
LD50 (Acute toxicity in mice; po, mice, orally, compound (3), read-out: Toxicity LD50 mice, orally): 600 mg/kg
acute toxicity in words (mice): well tolerated and poorly toxic

CN1CCN(C(=O)OC[C@@H]2C[C@@H]3c4cccc5[nH]c(Br)c(c45)C[C@H]3N(C)C2)CC1 [Example 18, D-2-bromo-6-methyl-8beta-(4,methylpiperazinyl-carbonyloxymethyl)-ergoline]
Antiadrenalic activity (a) vitro EC50 [1]: 50 ng/mL
Antiadrenalic activity (b) vivo ED50 ([2]; e.v.): > 0.32 mg/kg
LD50 (Acute toxicity in mice; [8]): 27.3 mg/kg
EC50 [5]: > 100 µg/mL

CN1C[C@H](COC(=O)N2CC3CCC(CC3)C2)C[C@@H]2c3cccc4[nH]c(Br)c(c34)C[C@H]21 [Example 20, D-2-bromo-6-methyl-8beta-(3-azabicyclo [3,2, 2]-nonanylcarbonyloxymethyl)-ergoline]
Antiadrenalic activity (a) vitro EC50 [1]: 375 ng/mL
Antiadrenalic activity (b) vivo ED50 ([2]; e.v.): 0.198 mg/kg
LD50 (Acute toxicity in mice; [8]): 50 mg/kg
EC50 [5]: > 100 µg/mL

N[C@@H](Cc1ccc(O)c(O)c1)C(=O)O [L-dopa, reference compound]
ED100 (Anti-Parkinson activity): 300 mg/kg

CC(N)Cc1ccccc1 (centres unmarked) [amphetamine, reference compound]
ED100 (Anorexia): 5 mg/kg

CN(C)CCCN1c2ccccc2CCc2ccccc21 [imipramine, reference compound]
ED100 (ptosis from reserpine; orally): 25 mg/kg
ED100 (Antidepressant activity): 25 mg/kg

CO[C@]12C[C@@H](COC(=O)c3cncc(Br)c3)CN(C)[C@@H]1Cc1cn(C)c3cccc2c13 [nicergoline, reference compound]
Antiadrenalic activity (b) vivo ED50 [6]: 0.02 mg/kg
LD50 (Acute toxicity in mice; [8]): 74.3 mg/kg
EC50 ([5]; in vitro): 2.1 µg/mL (≈ 4.34 µM)
Antiadrenalic activity (a) vitro EC50 [7]: 0.007 µg/mL

CCC1(c2ccccc2)C(=O)NC(=O)NC1=O [phenobarbital, reference compound]
ED100 (Myorelaxing activity): 100 mg/kg

dihydroergotoxine
Antiadrenalic activity (b) vivo ED50 [6]: 0.05 mg/kg
Antiadrenalic activity (a) vitro EC50 [7]: 0.078 µg/mL
